Experimental findings from US11701369B2, “Polymeric bile acid derivatives inhibit Hepatitis B and D virus and NTCP transport” (Huahui Health Ltd., priority 2014, dated 2023) are described below.

pIC50: −log10 of the molar value. “Also recorded” adds a separate entry of the source. Where two headings read alike, the source gives them in different places.

Series [1] has as its system HDV. The series can be described thus: HDV infection assay on HepG2-NTCP cells (intracellular delta antigen staining). It is filed as cell-based, Hepatitis D virus. As to the method: (§1) HBV and HDV infection assay. HepG2NTCP Cells were cultured in PMM for 12-24 hrs before infection, and then inoculated with 200 multiplicities of genome equivalents (mge) of HBV, or 500 mge of HDV in the presence of 5% PEG8000 in PMM at 37° C. for about 24 hrs. Chemicals to be tested were added to the cells as indicated in the specific assays. The inoculum was replenished by PMM post infection. The infections were detected at day 5 post infection (dpi).
Immunostaining assay. For HBV infection, infected cells were washed twice with PBS and fixed in 3.7% paraformaldehyde (PFA) at room temperature for 10 mins. Subsequently, cells were permeabilized with 0.5% Trition X-100/PBS for 10 mins at room temperature, blocked with 3% BSA at 37° C. for 1 hour, and followed by incubating with 5 μg/ml mouse mAb1C10 which recognizes HBcAg, and followed by staining with FITC-conjugated secondary antibody. Nucleus was stained with DAPI in blue. The stained cells were imaged with the fluorescence microscope (Nikon). For HDV infection, on 5 dpi, HDV infected cells were fixed with 100% methanol at room temperature for 10 mins, intracellular delta antigens were then stained with 5 μg/ml of FITC conjugated 4G5 and nucleus were stained with DAPI in blue. Images were collected by an Eclipse Ti Fluorescence Microscope (Nikon) and a representative picture is shown.

For series [2], the system named is HepG2-NTCP cells. The series can be described thus: In vitro cytotoxicity on HepG2-NTCP cell line. In kind it is cell-based. The method, then:
FIG. 6 Toxicity of 3UT(NQL-012), DiU(NQL-009) and 3TPT(NQL-018) in cell cultures. HepG2-NTCP cells were incubated with 3UT(NQL-012), DiU(NQL-009) or 3TPT(NQL-018) at indicated concentrations for 48 hrs, cell viability was evaluated and images were captured at 5 dpi.
In vitro cytotoxicity of PBADs. We also conducted experiments to determine the LD50 on HepG2-NTCP cell line of the three PBADs (3-UT (NQL-012), DIU (NQL-009), 3TPT (NQL-018)). We treated cells by different concentrations of PBADs for 48 hrs and captured the images of cells after they were further cultured for 3 days in PMM. […] No detectable cytotoxicity was observed upon treatment of DIU(NQL-009) and 3TPT(NQL-018) up to 200 μM, which is 2000-4000 folds higher than its inhibitory concentration for HBV infection.

In series [3] the target is T1, NTCP (Homo sapiens, UniProt Q14973).
T1 construct: expressed in transfected cells
T1 sequence (Q14973 1-349): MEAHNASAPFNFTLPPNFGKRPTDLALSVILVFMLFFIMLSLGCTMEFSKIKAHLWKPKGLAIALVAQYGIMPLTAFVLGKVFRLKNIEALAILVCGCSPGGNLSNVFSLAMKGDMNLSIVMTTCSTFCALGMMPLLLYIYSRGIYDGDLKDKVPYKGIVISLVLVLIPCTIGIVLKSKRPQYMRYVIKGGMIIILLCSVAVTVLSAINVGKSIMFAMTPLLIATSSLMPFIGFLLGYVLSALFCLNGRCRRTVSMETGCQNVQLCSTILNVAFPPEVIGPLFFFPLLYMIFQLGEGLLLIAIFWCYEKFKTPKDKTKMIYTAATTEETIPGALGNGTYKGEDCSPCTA
The series can be described thus: FITC-preS1 peptide binding assay. The method, then: FITC-preS1 peptide binding assay. NTCP expressing cells were cultured in PTH maintenance medium (PMM) for 24 hrs before conducting this assay. For Immunofluorescence microscopy, cells were incubated with 400 nM FITC-pre-S1 peptide diluted in WME or PMM at 37° C. for about 2-3 hrs. Subsequently, cells were washed once by WME, and then directly visualized with a Fluorescence Microscope.

Series [4] relates to HBV. The series can be described thus: In vitro stability: incubation with HBV inocula before infection, HBeAg ELISA. The conditions noted are these: incubated with HBV inocula for different times before infection, HBeAg at 5 dpi. In kind it is cell-based, Hepatitis B virus. As to the method:
FIG. 10 The influence of the linkage groups on the in vitro stability of PBADs. TUDCA, NQL018, NQL044, and NQL055 were incubated with HBV inocula of different times before viral infection, and present in the inocula during infection period. The level of secreted HBeAg was detected by ELISA at 5 dpi.
The in vitro stability of PBADs could PBADs could be enhanced by optimization of the linkage bond. We conducted stability analysis of several PBADs with similar structure but of different linkage. […] This indicates the in vitro and in vivo stability is to a large extent determined by the feature of the linkage groups.

The target in series [5] is T1, NTCP. The series can be described thus: [3H] taurocholate uptake assay on HepG2-NTCP cells. In kind it is cell-based. To be noted: for inhibition of NTCP substrate uptake (in words): co-incubation assay, [3H] taurocholate, 10 min; for pIC50: pretreatment assay, HepG2-NTCP cells pretreated 2 hrs before uptake assay, read-out: IC50 for inhibiting NTCP-mediated [3H] taurocholate uptake. The method, then: [3H] substrate uptake assay. [3H]taurocholate uptake assay was conducted following a protocol as previously described(60). In general, HepG2-NTCP cells were cultured in PMM for 12-24 hrs, then were treated with or without indicated chemicals before uptake assay. For substrate uptake assay, cells were generally incubated with 0.5 μl (0.5 μCi) [3H]-taurocholate dissolved in Na+ Ringer's solutions for 10 mins at 37° C. with or without the presence of chemicals. Subsequently, cells were washed once by PBS and lysed by 100 μl of 1% TritonX-100 in H2O for 5 mins at room temperature. The lysate was transferred into liquid scintillation tube and mixed with 900 μl liquid scintillation cocktail (Ultima GOLD™ XR) (Perkin Elmer, USA). Liquid scintillation counting was performed on a Perkin Elmer 1450 LSC Liquid Scintillation Counter and Luminescence Counter.

The test system of series [6] is HBV. The series can be described thus: HBV infection assay on HepaRG cells (HBsAg and HBeAg ELISA). It is filed as cell-based, Hepatitis B virus. To be noted: HBsAg and HBeAg at 5 dpi. The method, then: FIG. 11 HepaRG cells were infected with HBV in the presence of indicated PBADs. The level of secreted HBsAg and HBeAg was detected by ELISA at 5 dpi.
The antiviral potency of PBADs is also repeatable on other HBV infection system (HepaRG) with similar inhibition profile. […] HBV infection was conducted in the presence of NQL028, NQL018, NQL029, NQL019 and NQL021, all of which were bis-ester based PBADs with different linkage length.
Background: ELISA stands for enzyme-linked immunosorbent assay.

Series [7] has as its system HBV. The series can be described thus: HBV infection assay on HepG2-NTCP cells (secreted HBeAg by ELISA). In kind it is cell-based, Hepatitis B virus. The conditions noted are these: for inhibition of HBV infection (in words): secreted HBeAg. As to the method: as §1
ELISA assay for the detection of HBeAg and HBsAg. ELISA kits for HBeAg and HBsAg detection were from Wantai Pharm Inc. (Beijing, China). Supernatant from infected HepG2NTCP cells was collected on 2-5 days post infection. The secreted HBeAg and HBsAg in the culture medium was measured with a commercial kit from Wantai Pharm Inc (Beijing, China) by following the manufactory's instructions.

The mark [8] stands for this setting: Hepatitis B virus, read-out: IC50 for inhibiting HBV infection, HepG2-NTCP cells, PBAD present during infection, HBeAg in medium at 5 dpi.

Broadly, the pIC50 is the IC50 on a negative log10 scale, so that one unit is a factor of ten. As to `C[C@H](CCC(=O)NCCS(=O)(=O)O)[C@H]1CC[C@H]2[C@@H]3[C@@H](O)CC4C[C@H](OC(=O)CCCC(=O)O[C@@H]5CC[C@@]6(C)C(C5)C[C@H](O)[C@H]5[C@@H]7CC[C@H]([C@H](C)CCC(=O)NCCS(=O)(=O)O)[C@@]7(C)CC[C@@H]56)CC[C@]4(C)[C@H]3CC[C@]12C` (stereo in doubt) [NQL-018], in series [1], the “inhibition of HDV infection (in words)” value is “high antiviral activity; also recorded: greatly improved potency”. Moreover, the “concentration up to which no detectable cytotoxicity was observed” value in series [2] (human, 48 h) came to 200 µM. Further, in series [3] (HepG2-NTCP cells, pretreatment versus co-incubation, 3 hrs), the “blocking of FITC-preS1 binding to NTCP (in words)” value is “effect of pretreatment of 3TPT(NQL-018) was not as strong as that of co-incubation”. The “in vitro stability (antiviral potency after long incubation with the inoculum)” value in series [4] is reported as “not stable upon long time incubation with the inoculum; also recorded: decreased activity after long time incubation”. In addition, the “inhibition of NTCP substrate uptake (in words)” value in series [5] is given as “significantly higher efficiency than that of TUDCA”. Moreover, the pIC50 in series [5] was 7.23; in series [7] (setting [8]), 7.29; in series [7] (read-out: IC50 for inhibiting HBV infection, HepG2-NTCP cells, PBAD present during infection, HBeAg in medium at 5 dpi), 7.29. Further, in series [6], the “inhibition of HBV infection on HepaRG cells (in words)” value is reported as “inhibited HBV infection”. The “inhibition of HBV infection (in words)” value in series [7] (HepG2-NTCP cells) is reported as “high antiviral activity; also recorded: greatly improved potency”.
Take `C[C@H](CCC(=O)O[C@H]1CC[C@@]2(C)C(C1)C[C@H](O)C1[C@H]3CC[C@H]([C@H](C)CCC(=O)O[C@H]4CC[C@@]5(C)C(C4)C[C@H](O)C4[C@H]6CC[C@H]([C@H](C)CCC(=O)NCCS(=O)(=O)O)[C@@]6(C)CC[C@H]45)[C@@]3(C)CC[C@H]12)[C@H]1CC[C@@H]2C3[C@@H](CC[C@@]21C)[C@@]1(C)CC[C@H](O)CC1C[C@@H]3O` (stereo partly shown) [NQL-016]: the “inhibition of HDV infection (in words)” value in series [1] is listed as “not as high as the dimeric counterparts”. In addition, the “effect on FITC-preS1 peptide at high concentration” value in series [3] (high concentration of compound) is reported as “aggregation of FITC-preS1 peptide”. Further, the “inhibition of HBV infection (in words)” value in series [7] (HepG2-NTCP cells) is “not as high as the dimeric counterparts”.
Turning to `C[C@H](CCC(=O)O[C@H]1CC[C@@]2(C)C(C1)C[C@H](O)C1[C@H]3CC[C@H]([C@H](C)CCC(=O)NCCS(=O)(=O)O)[C@@]3(C)CC[C@H]12)[C@H]1CC[C@@H]2C3[C@@H](CC[C@@]21C)[C@@]1(C)CC[C@H](O)CC1C[C@@H]3O` (stereo partly shown) [NQL-012], in series [1], the “inhibition of HDV infection (in words)” value is recorded as “high antiviral activity; also recorded: greatly improved potency”. In series [2] (HepG2-NTCP, 48 hrs treatment, then 3 days culture in PMM), the LD50 is around 25 µM. In series [5], the “inhibition of NTCP substrate uptake (in words)” value is listed as “significantly higher efficiency than that of TUDCA” and the negative-log IC50 (pIC50) was 6.96. The “inhibition of HBV infection (in words)” value in series [7] (HepG2-NTCP cells) is listed as “high antiviral activity; also recorded: greatly improved potency”. In series [7] (setting [8]), the pIC50 is 7.00.
